# Measurements: PMC4811302, “Human β-defensin 3 contains an oncolytic motif that binds PI(4,5)P2 to mediate tumour cell permeabilisation” (Oncotarget, 2015)
# Where no end group is shown, it is not given here.
# Assays:
# U937 cells [1] = experiment: Lipid inhibition of HBD-3 mediated PI uptake; assay type: cell-based, human; settings: 15 μM HBD-3 pre-incubated with 50 μM synthetic lipid, flow cytometry, three independent experiments
# Method: (§1) Cells suspended at 1×10^6 cells/mL in serum-free medium containing 0.1% (w/v) bovine serum albumin (BSA) (Sigma-Aldrich) were treated with HBD-3 at 37°C for 30 min. Nucleic acid stain propidium iodide (PI) was then added to a final concentration of 1 μg/mL and cells subjected to flow cytometry analysis using BD FACSCanto II Flow Cytometer and BD FACSDiva Software v6.1.1 (BD Biosciences, San Jose, CA). For each flow cytometry reading, 10,000 cells, gated appropriately based on forward scattering and side scattering, were recorded. The resultant data were processed using FlowJo software (Tree Star, San Carlos, CA) to determine PI-positivity, which reflects the level of membrane permeabilisation. For lipid inhibition assays, 15 μM HBD-3 was pre-incubated with 50 μM synthetic lipids, including L-α-phosphatidic acid (PA), L-α-phosphatidylcholine (PC), L-α-phosphatidylethanolamine (PE), L-α-phosphatidylserine (PS), L-α-phosphatidylinositol-4-phosphate (PI(4)P), L-α-phosphatidylinositol-3,5-bisphosphate (PI(3,5)P2), L-α-phosphatidylinositol-4,5-bisphosphate (PI(4,5)P2) and L-α-phosphatidylinositol-3,4,5-trisphosphate (PI(3,4,5)P)3. All lipids were sourced from Avanti Polar Lipids, Alabaster, AL. For neomycin inhibition experiments, U937 cells at 1×10^6 cells/mL were pre-treated with 10 mM neomycin (Sigma-Aldrich), followed by three centrifugal washes with phosphate buffered saline (PBS) at 500 g for 5 min.
# U937 cells [2] = experiment: Neomycin inhibition of membrane permeabilisation (PI uptake); assay type: cell-based, human; settings: cells pre-treated with 10 mM neomycin, PI uptake by flow cytometry; effect overcome at higher HBD-3 concentrations
# Method: as §1, with “For neomycin inhibition experiments, U937 cells at 1×10^6 cells/mL were pre-treated with 10 mM neomycin (Sigma-Aldrich), followed by three centrifugal washes with phosphate buffered saline (PBS) at 500 g for 5 min.” left out
# [3] = Protein-lipid overlay assay, PIP strip; assay type: binding; settings: 1 μg/mL protein, immunodetection, densitometry
# Method: Protein-lipid overlay assays using Membrane strip™ or PIP strip™ (Echelon Biosciences, Salt Lake City, UT) were performed using 1 μg/mL proteins as described previously. Lipid binding was immunodetected using a combination of rabbit anti-HBD-3 IgG (50 μg/mL) and horseradish peroxidase-conjugated donkey-anti-rabbit Ig (10 μg/mL) antibodies. Chemiluminescence signal intensity was quantitated by densitometry analysis using ImageJ (National Institutes of Health, Bethesda, MD; http://imagej.nih.gov/ij/).
# U937 and HeLa cells = experiment: Cell viability assay, mutants compared to wild-type; assay type: cell-based, human; settings: cell viability assays, 48 h
# Method: (§2) Different concentrations of HBD-3 were added to cells seeded in 96-well plates in appropriate complete medium. Initial plating cell density was pre-optimised to avoid confluence at endpoint. After 48 h, cell viability was determined using 3-(4,5-dimethylthiazol-2-yl)-2,5-diphenyltetrazolium bromide (MTT) (Sigma-Aldrich, MO) for adherent cells (HeLa, PC3, HUVEC, AHDF, CASMC) or 3-(4,5-dimethylthiazol-2-yl)-5-(3-carboxymethoxyphenyl)-2-(4-sulfophenyl)-2H-tetrazolium (MTS) (Promega, Madison, WI) coupled with phenzine methosulfate (PMS) (Promega) for suspension cells (U937, HL-60, Jurkat) prior to absorbance measurement at 570 nm and […], respectively. Absorbance readings of untreated control wells was designated as 100% cell viability.
# [4] = ATP-encapsulated liposome leakage assay, PC:PI(4,5)P2; settings: 15 μM defensin
# Method: Liposomes were generated as described previously using natural PI(4,5)P2 (porcine brain, in chloroform:methanol:water at 20:9:1 molar ratio) and PC (chicken egg, in chloroform) purchased from Avanti Polar Lipids. PC only or PC:PI(4,5)P2 (95:5 molar ratio) solutions were dried under a stream of nitrogen gas followed by overnight vacuum-drying. The lipid films were rehydrated to a final concentration of 5 mg/mL in 20 mM HEPES (pH 7.2) containing 5 mg/mL adenosine-5-triphosphate disodium salt (ATP; Sigma-Aldrich) at 37°C for 1 h. After three subsequent cycles of freezing (liquid nitrogen) and thawing (25°C), multilamellar liposomes were extruded 15–20 times through a mini-extruder (Avanti Polar Lipids). Free ATP was removed by three centrifugal washes with 20 mM HEPES at 16,500 g prior to the ATP release assay. Liposomes treated with 1% Triton X-100 were included as positive control and assigned as total lysis, whereas HEPES only control served as background reading. The level of ATP release at a particular time point was determined by quotient of the corrected reading (after subtracting background) of the sample at that time point and corrected reading of total lysis, as per the following equation: % Lysist=Samplet−HEPESt/Triton X−HEPES×100
# tumour cells = settings: in vitro; ref [11]; cited from earlier work
# From the text: The underlying mechanism was described to involve the entry of NaD1 into the cell followed by binding to PI(4,5)P2, leading to membrane permeabilisation, membrane blebbing and eventually to cell lysis.
# HeLa cells = experiment: Tetrazolium-coupled cell viability assay, HBD-3 and mutants, HeLa; assay type: cell-based, human; settings: 48 h
# Method: as §2
# U937 cells [5] = experiment: Tetrazolium-coupled cell viability assay, HBD-3 and mutants, U937; assay type: cell-based, human; settings: 48 h
# Method: as §2
# [6] = tested on: plasma membrane PI(4,5)P2 of U937 cells; experiment: Anti-PI(4,5)P2 antibody blocking assay; assay type: cell-based, human; settings: 15 μM defensins 30 min or 10 mM neomycin 3 h; cells fixed, saponin-lysed, FITC-conjugated anti-PI(4,5)P2 IgM, flow cytometry
# Method: U937 cells at 1×10^6 cells/mL were treated with 10 mM neomycin for 3 h and/or 15 μM defensins for 30 min in serum-free RPMI 1640 medium containing 0.1% BSA, followed by 20 min fixation with 2% (v/w) paraformaldehyde (Sigma-Aldrich), 10 min lysis with 0.5% (w/v) saponin (Sigma-Aldrich), and then 30 min blocking with 3% (w/v) BSA. Three 5-min centrifugal washes with PBS at 500 g were also included between steps. FITC-conjugated mouse anti-PI(4,5)P2 IgM (Echelon Biosciences) or IgM control (GeneTex, Irvine, CA) was subsequently used at 10 μg/mL for 30 min prior to flow cytometry analysis.
substance,measurement,setting,value
"L-α-phosphatidylinositol-3,5-bisphosphate [PI(3,5)P2]",reduced PI-positivity (inhibition of HBD-3 mediated PI uptake by lipid),U937 cells [1],did not show any significant inhibition
"LL-37: another CAP that exhibits non-PI(4,5)P2-dependent detergent-like and/or pore-forming membrane disruption (LLGDFFRKSKEKIGKEFKRIVQRIKDFLRNLVPRTES; Antibacterial peptide LL-37; UniProt P49913 134-170, looked up) [reference compound]",susceptibility of neomycin pre-incubated cells to permeabilisation compared to untreated control,U937 cells [2],not
L-α-phosphatidic acid [PA],reduced PI-positivity (inhibition of HBD-3 mediated PI uptake by lipid),U937 cells [1],enhanced permeabilisation
L-α-phosphatidylethanolamine [PE],reduced PI-positivity (inhibition of HBD-3 mediated PI uptake by lipid),U937 cells [1],did not show any significant inhibition
L-α-phosphatidylcholine [PC],reduced PI-positivity (inhibition of HBD-3 mediated PI uptake by lipid),U937 cells [1],did not show any significant inhibition
"HBD-3(K32A): alanine mutant of HBD-3 at K32, recombinantly expressed in P. pastoris (GIINTLQKYYCRVRGGRCAVLSCLPKEEQIGACSTRGRKCCRRKK; ends and bridges not checked; cysteine pairing not given here; UniProt P81534 23-67, looked up, variant K32A)",binding to PA on PIP strip compared to wild-type HBD-3,[3],substantially retained
same,binding to phosphoinositides/lipids on PIP strip,[3],much lower levels
same,tumour cell cytotoxicity compared to wild-type HBD-3,U937 and HeLa cells,reduced tumour cell cytotoxicity
same,ability to induce ATP release from ATP-encapsulated liposomes compared to wild-type HBD-3,[4],impaired
L-α-phosphatidylserine [PS],reduced PI-positivity (inhibition of HBD-3 mediated PI uptake by lipid),U937 cells [1],~15%
"Nicotiana alata defensin 1 (RECKTESNTFPGICITKPPCRKACISEKFTDGHCSKILRRCLCTKPC; UniProt Q8GTM0 26-72, looked up) [NaD1]",concentrations selectively killing a broad spectrum of tumour cells,tumour cells,low micromolar concentrations
"HBD-3(K39A): alanine mutant of HBD-3 at K39, recombinantly expressed in P. pastoris (GIINTLQKYYCRVRGGRCAVLSCLPKEEQIGKCSTRGRACCRRKK; UniProt P81534 23-67, looked up, variant K39A)",fold higher IC50 compared to wild-type HBD-3,HeLa cells,two-fold
same,binding to PA on PIP strip compared to wild-type HBD-3,[3],maintaining binding to PA
same,binding to phosphoinositides/lipids on PIP strip,[3],pronounced loss of PIP binding
same,tumour cell cytotoxicity compared to wild-type HBD-3,U937 and HeLa cells,reduced tumour cell cytotoxicity
same,fold higher IC50 compared to wild-type HBD-3,U937 cells [5],three-fold
same,"blocking of anti-PI(4,5)P2 antibody binding (overall fluorescence intensity vs untreated control)",[6],essentially the same as that of the untreated control
same,ability to induce ATP release from ATP-encapsulated liposomes compared to wild-type HBD-3,[4],impaired
L-α-phosphatidylinositol-4-phosphate [PI(4)P],reduced PI-positivity (inhibition of HBD-3 mediated PI uptake by lipid),U937 cells [1],did not show any significant inhibition
"L-α-phosphatidylinositol-3,4,5-trisphosphate [PI(3,4,5)P3]",reduced PI-positivity (inhibition of HBD-3 mediated PI uptake by lipid),U937 cells [1],100%
"L-α-phosphatidylinositol-4,5-bisphosphate [PI(4,5)P2]",reduced PI-positivity (inhibition of HBD-3 mediated PI uptake by lipid),U937 cells [1],~50%
